The supplement of paper PMC10307832

Legend:
Test in all cases: relative viability (nuclei count vs DMSO), 5 days (fraction); higher = more cells survive
[1] = compound: C#Cc1cccc(Nc2ncnc3cc(OC)c(OCCCCCCC(=O)NO)cc23)c1 [CUDC-101]
Outline: (§1)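 Viability here means nuclei in treated wells divided by nuclei in vehicle wells, reported as the median across plates. Only plates with control CV below 25% and at least one doubling passed. Lung cancer cell lines in 1536-well plates were exposed to five √10-spaced library-drug doses for 5 days and counted from 4× Hoechst images in MetaXpress.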

[2] = compound: C1=CC=C2C(=C1)N=C(S2)C(C#N)C3=NC(=NC=C3)NCCC4=CN=CC=C4
Outline: as §1

[3] = compound: COc1cc(N2CCC(N3CCN(C)CC3)CC2)ccc1Nc1ncc(Cl)c(Nc2ccccc2S(=O)(=O)C(C)C)n1 [NVP-TAE684]
Outline: as §1

[4] = compound: COc1cc2/c(=N/c3ccc(Br)cc3F)nc[nH]c2cc1OCC1CCN(C)CC1 [Vandetanib]
Outline: as §1

Work on PC-3 [JPC-3] yielded a relative viability ([1]; 0.01 µM) of 1.05, a relative viability ([1]; 0.03162 µM) of 0.972 and a relative viability ([1]; 0.1 µM) of 0.522. It also gave a relative viability ([1]; 0.3162 µM) of 0.542, a relative viability ([1]; 1 µM) of 0.431 and a relative viability ([2]; 0.005 µM) of 0.85. For the same cell line, the relative viability ([2]; 0.01581 µM) was 0.966, the relative viability ([2]; 0.05 µM) was 1.01 and the relative viability ([2]; 0.1581 µM) was 1.15. For the same cell line, the relative viability ([2]; 0.5 µM) was 1.07, the relative viability ([3]; 0.2 µM) was 1.08 and the relative viability ([3]; 0.6325 µM) was 0.945. For the same cell line, the relative viability ([3]; 2 µM) was 0.984, the relative viability ([4]; 0.02 µM) was 1 and the relative viability ([4]; 0.06325 µM) was 0.922. It also gave a relative viability ([4]; 0.2 µM) of 0.983, a relative viability ([4]; 0.6325 µM) of 0.653 and a relative viability ([4]; 2 µM) of 0.507.

With IA-LM the relative viability ([1]; 0.01 µM) was 1.01, the relative viability ([1]; 0.03162 µM) was 0.861 and the relative viability ([1]; 0.1 µM) was 1.06. It also gave a relative viability ([1]; 0.3162 µM) of 0.879, a relative viability ([1]; 1 µM) of 0.697 and a relative viability ([2]; 0.005 µM) of 0.834. For the same cell line, the relative viability ([2]; 0.01581 µM) was 1.19, the relative viability ([2]; 0.05 µM) was 0.997 and the relative viability ([2]; 0.1581 µM) was 1.02. It also gave a relative viability ([2]; 0.5 µM) of 0.762, a relative viability ([3]; 0.2 µM) of 0.712 and a relative viability ([3]; 0.6325 µM) of 0.885. The relative viability ([3]; 2 µM) was 0.75, the relative viability ([4]; 0.02 µM) was 0.996 and the relative viability ([4]; 0.06325 µM) was 0.895. For the same cell line, the relative viability ([4]; 0.2 µM) was 0.946, the relative viability ([4]; 0.6325 µM) was 1.09 and the relative viability ([4]; 2 µM) was 1.15.

For NCI-H520, the relative viability ([1]; 0.01 µM) was 0.997, the relative viability ([1]; 0.03162 µM) was 0.914 and the relative viability ([1]; 0.1 µM) was 0.982. It also gave a relative viability ([1]; 0.3162 µM) of 1.02, a relative viability ([1]; 1 µM) of 0.686 and a relative viability ([2]; 0.005 µM) of 0.847. For the same cell line, the relative viability ([2]; 0.01581 µM) was 0.973, the relative viability ([2]; 0.05 µM) was 0.953 and the relative viability ([2]; 0.1581 µM) was 0.968. The relative viability ([2]; 0.5 µM) was 0.96, the relative viability ([3]; 0.2 µM) was 0.969 and the relative viability ([3]; 0.6325 µM) was 0.986. For the same cell line, the relative viability ([3]; 2 µM) was 0.767, the relative viability ([4]; 0.02 µM) was 0.995 and the relative viability ([4]; 0.06325 µM) was 0.986. It also gave a relative viability ([4]; 0.2 µM) of 0.925, a relative viability ([4]; 0.6325 µM) of 0.95 and a relative viability ([4]; 2 µM) of 0.938.

For A549, the relative viability ([1]; 0.01 µM) was 1.04, the relative viability ([1]; 0.03162 µM) was 0.967 and the relative viability ([1]; 0.1 µM) was 1. It also gave a relative viability ([1]; 0.3162 µM) of 1.04, a relative viability ([1]; 1 µM) of 0.799 and a relative viability ([2]; 0.005 µM) of 0.914. It also gave a relative viability ([2]; 0.01581 µM) of 1.03, a relative viability ([2]; 0.05 µM) of 0.969 and a relative viability ([2]; 0.1581 µM) of 1.05. For the same cell line, the relative viability ([2]; 0.5 µM) was 0.901, the relative viability ([3]; 0.2 µM) was 1.1 and the relative viability ([3]; 0.6325 µM) was 0.951. For the same cell line, the relative viability ([3]; 2 µM) was 0.585, the relative viability ([4]; 0.02 µM) was 1 and the relative viability ([4]; 0.06325 µM) was 0.894. For the same cell line, the relative viability ([4]; 0.2 µM) was 0.913, the relative viability ([4]; 0.6325 µM) was 0.907 and the relative viability ([4]; 2 µM) was 0.922.

In the case of BEN, the relative viability ([1]; 0.01 µM) was 1.11, the relative viability ([1]; 0.03162 µM) was 0.833 and the relative viability ([1]; 0.1 µM) was 1.06. For the same cell line, the relative viability ([1]; 0.3162 µM) was 0.856, the relative viability ([1]; 1 µM) was 0.708 and the relative viability ([2]; 0.005 µM) was 0.864. It also gave a relative viability ([2]; 0.01581 µM) of 0.908, a relative viability ([2]; 0.05 µM) of 0.97 and a relative viability ([2]; 0.1581 µM) of 1.04. The relative viability ([2]; 0.5 µM) was 1.08, the relative viability ([3]; 0.2 µM) was 0.933 and the relative viability ([3]; 0.6325 µM) was 0.73. It also gave a relative viability ([3]; 2 µM) of 0.876, a relative viability ([4]; 0.02 µM) of 0.941 and a relative viability ([4]; 0.06325 µM) of 0.916. The relative viability ([4]; 0.2 µM) was 0.886, the relative viability ([4]; 0.6325 µM) was 0.933 and the relative viability ([4]; 2 µM) was 0.988.

COR-L 105 gave a relative viability ([1]; 0.01 µM) of 0.951, a relative viability ([1]; 0.03162 µM) of 1.01 and a relative viability ([1]; 0.1 µM) of 0.815. For the same cell line, the relative viability ([1]; 0.3162 µM) was 0.906, the relative viability ([1]; 1 µM) was 0.482 and the relative viability ([2]; 0.005 µM) was 0.8. The relative viability ([2]; 0.01581 µM) was 0.711, the relative viability ([2]; 0.05 µM) was 0.774 and the relative viability ([2]; 0.1581 µM) was 0.941. For the same cell line, the relative viability ([2]; 0.5 µM) was 0.768, the relative viability ([3]; 0.2 µM) was 1.03 and the relative viability ([3]; 0.6325 µM) was 0.68. For the same cell line, the relative viability ([3]; 2 µM) was 0.452, the relative viability ([4]; 0.02 µM) was 0.936 and the relative viability ([4]; 0.06325 µM) was 0.875. The relative viability ([4]; 0.2 µM) was 0.911, the relative viability ([4]; 0.6325 µM) was 0.641 and the relative viability ([4]; 2 µM) was 0.457.

For NCI-H1734, the relative viability ([1]; 0.01 µM) was 1.01, the relative viability ([1]; 0.03162 µM) was 0.942 and the relative viability ([1]; 0.1 µM) was 1.05. It also gave a relative viability ([1]; 0.3162 µM) of 0.95, a relative viability ([1]; 1 µM) of 0.703 and a relative viability ([2]; 0.005 µM) of 0.787. The relative viability ([2]; 0.01581 µM) was 0.91, the relative viability ([2]; 0.05 µM) was 0.963 and the relative viability ([2]; 0.1581 µM) was 1.14. For the same cell line, the relative viability ([2]; 0.5 µM) was 0.871, the relative viability ([3]; 0.2 µM) was 0.983 and the relative viability ([3]; 0.6325 µM) was 0.901. The relative viability ([3]; 2 µM) was 0.705, the relative viability ([4]; 0.02 µM) was 0.954 and the relative viability ([4]; 0.06325 µM) was 0.93. For the same cell line, the relative viability ([4]; 0.2 µM) was 1.03, the relative viability ([4]; 0.6325 µM) was 0.894 and the relative viability ([4]; 2 µM) was 1.01.

LOU-NH91 showed a relative viability ([1]; 0.01 µM) of 1.06, a relative viability ([1]; 0.03162 µM) of 0.846 and a relative viability ([1]; 0.1 µM) of 0.932. The relative viability ([1]; 0.3162 µM) was 0.872, the relative viability ([1]; 1 µM) was 0.646 and the relative viability ([2]; 0.005 µM) was 0.954. It also gave a relative viability ([2]; 0.01581 µM) of 0.875, a relative viability ([2]; 0.05 µM) of 0.815 and a relative viability ([2]; 0.1581 µM) of 1.02. The relative viability ([2]; 0.5 µM) was 0.916, the relative viability ([3]; 0.2 µM) was 0.966 and the relative viability ([3]; 0.6325 µM) was 0.833. For the same cell line, the relative viability ([3]; 2 µM) was 0.703, the relative viability ([4]; 0.02 µM) was 0.986 and the relative viability ([4]; 0.06325 µM) was 0.869. The relative viability ([4]; 0.2 µM) was 0.825, the relative viability ([4]; 0.6325 µM) was 0.823 and the relative viability ([4]; 2 µM) was 0.859.

NCI-H2405 was tested, and the relative viability ([1]; 0.01 µM) was 1.06, the relative viability ([1]; 0.03162 µM) was 0.984 and the relative viability ([1]; 0.1 µM) was 1.09. For the same cell line, the relative viability ([1]; 0.3162 µM) was 1.1, the relative viability ([1]; 1 µM) was 0.951 and the relative viability ([2]; 0.005 µM) was 0.981. For the same cell line, the relative viability ([2]; 0.01581 µM) was 0.943, the relative viability ([2]; 0.05 µM) was 0.962 and the relative viability ([2]; 0.1581 µM) was 0.988. The relative viability ([2]; 0.5 µM) was 0.981, the relative viability ([3]; 0.2 µM) was 1.06 and the relative viability ([3]; 0.6325 µM) was 0.869. The relative viability ([3]; 2 µM) was 0.574, the relative viability ([4]; 0.02 µM) was 0.993 and the relative viability ([4]; 0.06325 µM) was 0.785. It also gave a relative viability ([4]; 0.2 µM) of 1.1, a relative viability ([4]; 0.6325 µM) of 1.06 and a relative viability ([4]; 2 µM) of 0.689.
